In PubChem BioAssay (NCI):
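Briefly, cells in 96-well plates were exposed to five compound concentrations for 48 h, and endpoints were estimated by linear interpolation. GI50 is the concentration that inhibits growth by half. Definition used: TGI = concentration required for complete inhibition of growth.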

System: SK-OV-3 ovarian
Experiment: growth of human tumour cells (NCI), 48 h

SMILES | TGI
CC(=O)c1sc2c(c1OC(=O)c1cccs1)c(=O)n(-c1ccccc1)c(=S)n2-c1ccccc1 | 52 µM
NS(=O)(=O)c1ccc(-n2c(-c3cccs3)nc3ccc(I)cc3c2=O)cc1 | 53.7 µM
CCOC(=O)CC1c2ccc(O)cc2OC(=O)C1c1ccc([N+](=O)[O-])cc1 (stereo not drawn) | 85.5 µM
CCOC(=O)C1(C(=O)OCC)CN(CC)CN(c2ccccc2)C1 | > 100 µM
COC1=C(Br)[C@H](O)[C@@]2(C=C1Br)CC(C(=O)NCCCCCN=C(N)N)=NO2 | > 10 µM
CC(=O)OC1CC2c3cccc4c3C(CC2N(C)C1=O)CN4C(=O)c1ccccc1 (stereo not drawn) | 80.4 µM

System: LOX IMVI melanoma
Experiment: growth of human tumour cells (NCI), 48 h

SMILES | TGI
COc1ccc(C[N+]23C(CC[C@H]2c2ccccc2)CC[C@H]3c2ccccc2)cc1 (stereo partly drawn) | 44.7 µM
CC(=O)c1sc2c(c1OC(=O)c1cccs1)c(=O)n(-c1ccccc1)c(=S)n2-c1ccccc1 | 17.2 µM
NS(=O)(=O)c1ccc(-n2c(-c3cccs3)nc3ccc(I)cc3c2=O)cc1 | 37 µM
CCOC(=O)CC1c2ccc(O)cc2OC(=O)C1c1ccc([N+](=O)[O-])cc1 (stereo not drawn) | > 100 µM
CCOC(=O)C1(C(=O)OCC)CN(CC)CN(c2ccccc2)C1 | > 100 µM
COC1=C(Br)[C@H](O)[C@@]2(C=C1Br)CC(C(=O)NCCCCCN=C(N)N)=NO2 | > 10 µM
CC(=O)OC1CC2c3cccc4c3C(CC2N(C)C1=O)CN4C(=O)c1ccccc1 (stereo not drawn) | 25.3 µM

System: NCI-H23 lung
Experiment: growth of human tumour cells (NCI), 48 h

SMILES | TGI
CC(=O)c1sc2c(c1OC(=O)c1cccs1)c(=O)n(-c1ccccc1)c(=S)n2-c1ccccc1 | 40.9 µM
NS(=O)(=O)c1ccc(-n2c(-c3cccs3)nc3ccc(I)cc3c2=O)cc1 | 51.1 µM
CCOC(=O)CC1c2ccc(O)cc2OC(=O)C1c1ccc([N+](=O)[O-])cc1 (stereo not drawn) | 96.7 µM
CCOC(=O)C1(C(=O)OCC)CN(CC)CN(c2ccccc2)C1 | 39 µM
COC1=C(Br)[C@H](O)[C@@]2(C=C1Br)CC(C(=O)NCCCCCN=C(N)N)=NO2 | > 10 µM
CC(=O)OC1CC2c3cccc4c3C(CC2N(C)C1=O)CN4C(=O)c1ccccc1 (stereo not drawn) | 55.4 µM

System: MALME-3M melanoma
Experiment: growth of human tumour cells (NCI), 48 h

SMILES | TGI
COc1ccc(C[N+]23C(CC[C@H]2c2ccccc2)CC[C@H]3c2ccccc2)cc1 (stereo partly drawn) | 30.8 µM
CC(=O)c1sc2c(c1OC(=O)c1cccs1)c(=O)n(-c1ccccc1)c(=S)n2-c1ccccc1 | 6.7 µM
NS(=O)(=O)c1ccc(-n2c(-c3cccs3)nc3ccc(I)cc3c2=O)cc1 | 43.2 µM
CCOC(=O)CC1c2ccc(O)cc2OC(=O)C1c1ccc([N+](=O)[O-])cc1 (stereo not drawn) | 70.3 µM
CCOC(=O)C1(C(=O)OCC)CN(CC)CN(c2ccccc2)C1 | 69.2 µM
COC1=C(Br)[C@H](O)[C@@]2(C=C1Br)CC(C(=O)NCCCCCN=C(N)N)=NO2 | > 10 µM

System: MDA-MB-231 breast
Experiment: growth of human tumour cells (NCI), 48 h

SMILES | TGI
COc1ccc(C[N+]23C(CC[C@H]2c2ccccc2)CC[C@H]3c2ccccc2)cc1 (stereo partly drawn) | 82.4 µM
CC(=O)c1sc2c(c1OC(=O)c1cccs1)c(=O)n(-c1ccccc1)c(=S)n2-c1ccccc1 | 32.2 µM
CCOC(=O)CC1c2ccc(O)cc2OC(=O)C1c1ccc([N+](=O)[O-])cc1 (stereo not drawn) | 48.6 µM
COC1=C(Br)[C@H](O)[C@@]2(C=C1Br)CC(C(=O)NCCCCCN=C(N)N)=NO2 | > 10 µM
CC(=O)OC1CC2c3cccc4c3C(CC2N(C)C1=O)CN4C(=O)c1ccccc1 (stereo not drawn) | 52.4 µM

System: RPMI-8226 leukemia
Experiment: growth of human tumour cells (NCI), 48 h

SMILES | TGI | GI50
COc1ccc(C[N+]23C(CC[C@H]2c2ccccc2)CC[C@H]3c2ccccc2)cc1 (stereo partly drawn) | 27 µM | –
CC(=O)c1sc2c(c1OC(=O)c1cccs1)c(=O)n(-c1ccccc1)c(=S)n2-c1ccccc1 | 20.3 µM | –
NS(=O)(=O)c1ccc(-n2c(-c3cccs3)nc3ccc(I)cc3c2=O)cc1 | 62.1 µM | 25.3 µM
CCOC(=O)C1(C(=O)OCC)CN(CC)CN(c2ccccc2)C1 | 45 µM | –
COC1=C(Br)[C@H](O)[C@@]2(C=C1Br)CC(C(=O)NCCCCCN=C(N)N)=NO2 | > 10 µM | –
CC(=O)OC1CC2c3cccc4c3C(CC2N(C)C1=O)CN4C(=O)c1ccccc1 (stereo not drawn) | > 100 µM | –

System: HCC-2998 colon
Experiment: growth of human tumour cells (NCI), 48 h

SMILES | TGI
CC(=O)c1sc2c(c1OC(=O)c1cccs1)c(=O)n(-c1ccccc1)c(=S)n2-c1ccccc1 | > 100 µM
NS(=O)(=O)c1ccc(-n2c(-c3cccs3)nc3ccc(I)cc3c2=O)cc1 | 39.9 µM
CCOC(=O)CC1c2ccc(O)cc2OC(=O)C1c1ccc([N+](=O)[O-])cc1 (stereo not drawn) | 60.6 µM
CCOC(=O)C1(C(=O)OCC)CN(CC)CN(c2ccccc2)C1 | 28.9 µM
COC1=C(Br)[C@H](O)[C@@]2(C=C1Br)CC(C(=O)NCCCCCN=C(N)N)=NO2 | > 10 µM
CC(=O)OC1CC2c3cccc4c3C(CC2N(C)C1=O)CN4C(=O)c1ccccc1 (stereo not drawn) | 43.5 µM

System: RXF 393 renal
Experiment: growth of human tumour cells (NCI), 48 h

SMILES | TGI
COc1ccc(C[N+]23C(CC[C@H]2c2ccccc2)CC[C@H]3c2ccccc2)cc1 (stereo partly drawn) | 35.3 µM
CC(=O)c1sc2c(c1OC(=O)c1cccs1)c(=O)n(-c1ccccc1)c(=S)n2-c1ccccc1 | 18.6 µM
NS(=O)(=O)c1ccc(-n2c(-c3cccs3)nc3ccc(I)cc3c2=O)cc1 | 88.9 µM
CCOC(=O)CC1c2ccc(O)cc2OC(=O)C1c1ccc([N+](=O)[O-])cc1 (stereo not drawn) | 64.4 µM
CCOC(=O)C1(C(=O)OCC)CN(CC)CN(c2ccccc2)C1 | 31.7 µM
